According to patent US10065937B2, “FLT3 receptor antagonists” (INSERM (INSTITUT NATIONAL DE LA SANTÉ ET DE LA RECHERCHE …, priority 2014, dated 2018):

What was measured:
SNAP tagged-FLT3 = molecular target: T1, SNAP tagged-FLT3 (Homo sapiens, UniProt P36888); test: Tag-lite competition binding assay (Red-FL displacement, HTRF); conditions: cells expressing SNAP tagged-FLT3, 0.5 nM Red-FL
T1 construct: expressed in transfected cells
T1 sequence (P36888 27-993): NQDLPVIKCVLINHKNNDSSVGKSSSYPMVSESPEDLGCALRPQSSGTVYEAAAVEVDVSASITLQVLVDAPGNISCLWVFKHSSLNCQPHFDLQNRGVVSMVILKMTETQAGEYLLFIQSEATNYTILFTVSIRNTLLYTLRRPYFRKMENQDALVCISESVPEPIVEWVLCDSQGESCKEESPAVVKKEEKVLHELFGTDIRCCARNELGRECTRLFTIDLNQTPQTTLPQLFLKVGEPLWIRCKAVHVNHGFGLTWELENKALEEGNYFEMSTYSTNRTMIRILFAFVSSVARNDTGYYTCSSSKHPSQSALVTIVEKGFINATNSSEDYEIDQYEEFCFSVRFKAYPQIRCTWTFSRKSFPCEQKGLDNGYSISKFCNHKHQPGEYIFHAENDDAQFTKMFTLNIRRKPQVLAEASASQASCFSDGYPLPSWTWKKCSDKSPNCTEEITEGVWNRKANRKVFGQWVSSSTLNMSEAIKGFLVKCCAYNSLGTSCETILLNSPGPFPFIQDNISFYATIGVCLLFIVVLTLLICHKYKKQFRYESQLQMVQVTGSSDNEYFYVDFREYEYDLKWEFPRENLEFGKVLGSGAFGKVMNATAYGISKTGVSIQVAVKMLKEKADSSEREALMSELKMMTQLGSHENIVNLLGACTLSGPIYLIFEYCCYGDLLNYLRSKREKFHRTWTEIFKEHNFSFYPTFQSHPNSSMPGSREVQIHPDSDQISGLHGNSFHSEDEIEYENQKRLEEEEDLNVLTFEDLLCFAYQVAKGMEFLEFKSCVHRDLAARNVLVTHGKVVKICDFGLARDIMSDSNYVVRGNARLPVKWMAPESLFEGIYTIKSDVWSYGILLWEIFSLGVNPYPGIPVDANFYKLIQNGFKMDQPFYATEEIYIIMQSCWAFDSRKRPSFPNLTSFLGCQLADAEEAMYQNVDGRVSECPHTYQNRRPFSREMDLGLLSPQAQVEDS
Procedure: Covalent Labeling of Cells Expressing the SNAP Tagged-FLT3
Labelling of Adherent Cells
Cell culture medium was removed from the 96 well plates and 100 nM of SNAP-Lumi4 Tb previously diluted in the Tag-lite labelling medium, was added under 100 μl per well, and further incubated 1 h at 37° C. under 5% CO2. The excess of SNAP-Lumi4-Tb was removed by washing each well 4 times with 100 μl of Tag-lite labelling medium.
Labelling of a Batch of Cells and Cells Freezing
After removal of the cell culture medium from a flask containing adherent cells, 5 ml of Tag-lite labelling medium containing 100 nM of SNAP-Lumi4-Tb was added to the flask and incubated for 1 h at 37° C. under 5% CO2. The excess of SNAP-Lumi4-Tb was removed by washing each flask 4 times with 5 ml of Tag-lite labelling medium. Cells were detached, pelleted by centrifugation (5 min at 1,300 rpm) and suspended in a cell culture medium containing 10% DMSO. Then, cells were distributed at 5 millions cells per vial and slowly frozen to −80° C. in isopropanol then transferred in liquid nitrogen for storage.
Prior to their use, the frozen cells were thawed quickly at 37° C., the medium was removed from the vials and the cells were suspended in the Tag-lite labelling medium at a cell-density of 1 million cells/ml.
Tag-lite binding assays were performed 24 h after transfection on fresh cells. When using frozen cells, binding assays were carried out immediately after cells thawing. When the assay was carried out on adherent cells in 96-well plates, the cell density was 50,000 cells per well, while a density of 10,000 cells per well was used to carry out binding assays in suspension in 384-well small volume plates.
Competition Binding Assay
Both Red-FL and the compounds to be tested were diluted in Tag-lite labelling medium. Cells were incubated with 0.5 nM Red-FL in the presence of increasing concentrations of compounds to be tested. In the plates containing labelled cells, 50 μl (or 10 μl in 384-well plates) of Tag-lite labelling medium, 25 μl (or 5 μl in 384-well plates) of compounds to be tested were added and incubated for 1 h at Room temperature prior to the addition of 25 μl (or 5 μl in 384-well plates) of Red-FL. Plates were then incubated at room temperature for 4 h or overnight before signal detection.
(§1) Signal was detected using an advanced fluorescence microplate reader (RUBYstar, BMG Labtech) equipped with a HTRF optic module allowing a donor excitation at 337 nm and a signal collection both at 665 nm and 620 nm. A frequency of 20 flashes/well is selected for the laser excitation. The signal was collected both at 665 nm and 620 nm using the following time-resolved settings: delay 50 μs, integration time 400 μs. HTRF ratios were obtained by dividing the acceptor signal (665 nm) by the donor signal (620 nm) and multiplying this value by 10,000. The 10,000 multiplying factor is used solely for the purpose of easier data handling.
(§2) Data Analysis and Statistics
(§3) Kd values of the fluorescent ligand were determined from saturation curves of the specific binding using GraphPad Prism software (GraphPad Software, Inc., San Diego, Calif.). Ki values of the compounds were determined from binding competition experiments according to the Cheng and Prusoff equation. EC50 and IC50 values of the rh-FL and compounds were determined from sigmoidal dose-response curves using GraphPad Prism software (GraphPad Software, Inc., San Diego, Calif.).

FLT3 receptor = molecular target: T2, FLT3 receptor (Homo sapiens, UniProt P36888); test: Auto-phosphorylation competition assay on RS4-11 cells (HTRF); assay type: cell-based; conditions: RS4-11 cells expressing endogenous FLT3, 0.1 μM rh-FL; read-out: IC50, μM Autophosphorylation
T2 construct: Auto-phosphorylation assays were performed on RS4-11 cells that express endogenous FLT3 receptor; endogenous in cells; host or cells: RS4-11 cells
T2 sequence (P36888 27-993): T1 sequence (P36888 27-993)
Procedure: Auto-Phosphorylation Assays
Auto-phosphorylation assays were performed on RS4-11 cells that express endogenous FLT3 receptor. A density of 50,000 cells per well was used to carry out this assay in suspension in 384-well small volume plates to determine the degree of phosphorylation of FLT3. In the aim to discover antagonist compounds and to develop this assay, we were determined the efficiency of FL on RS4-11 cells.
Both rh-FL and the compounds to be tested were diluted in Tag-lite labelling medium. Cells were incubated with 0.1 μM of rh-FL in the presence of increasing concentrations of compounds to be tested. In the plates containing RS4-11 cells (5 μl/well), 5 μl of compounds to be tested were added and incubated for 1 h at Room temperature prior to the addition of 2 μl of rh-FL at 0.1 μM. After incubation of 3 minutes at room temperature of rh-FL, 4 μl of lysis buffer were added and incubated for 2 h at room temperature. A mix of anti-FLT3 and an anti-TYR-969 FLT3 antibodies labeled with Lumi4-Tb and d2 respectively (4 μl) diluted in Tag-lite labelling medium, were added on cell lysate. Plates were then incubated at room temperature for 2 h or overnight before signal detection.
as §1, §2, §3

Row | SMILES | IC50 (SNAP tagged-FLT3) [µM] | IC50 (FLT3 receptor) [µM]
1 | O=S(=O)(c1cccc(-c2nc3cccc(O)c3[nH]2)c1)N1CCCCC1 [Example 8, 2-[3-(1-piperidylsulfonyl)phenyl]-3H-benzimidazol-4-ol] | 98 | 68
2 | CN(C1CCCCCC1)S(=O)(=O)c1cccc(C(=O)Nc2cc(Cl)ccc2O)c1 [Example 11, N-(5-chloro-2-hydroxyphenyl)-3-[cycloheptyl(methyl)sulfamoyl]benzamide] | 27.5 | 41
3 | O=S(=O)(c1cccc(-c2ncc(-c3cc(Cl)ccc3O)[nH]2)c1)N1CCCCC1 [Example 5, 4-chloro-2-(2-(3-(piperidin-1-ylsulfonyl)phenyl)-1H-imidazol-5-yl)phenol] | 33 | 17
4 | O=C(Nc1cc(Cl)ccc1-c1nnn[nH]1)c1cccc(S(=O)(=O)N2CCCCC2)c1 [Example 9, N-[5-chloro-2-(1H-1,2,3,4-tetrazol-5-yl)phenyl]-3-(piperidine-1-sulfonyl)benzamide] | 175 | 148
5 | NCCCN(C1CCCCC1)S(=O)(=O)c1cccc(-c2nc3cc(Cl)ccc3o2)c1 [Example 7, N-(3-aminopropyl)-3-(5-chloro-1,3-benzoxazol-2-yl)-N-cyclohexylbenzene-1-sulfonamide] | 10 | 63
6 | O=C(Nc1cc(Cl)ccc1O)c1cccc(S(=O)(=O)N2CCCCC2)c1 [Example 1, N-(5-chloro-2-hydroxyphenyl)-3-(piperidin-1-ylsulfonyl) benzamide] | 11.8 | 58
7 | O=S(=O)(c1cccc(-c2nnc(-c3cc(Cl)ccc3O)[nH]2)c1)N1CCCCC1 [Example 4, 4-chloro-2-(5-(3-(piperidin-1-ylsulfonyl)phenyl)-4H-1,2,4-triazol-3-yl)phenol] | 26 | 20
8 | O=C(Nc1cccc(S(=O)(=O)N2CCCCC2)c1)c1cc(Cl)ccc1O [Example 10, 5-Chloro-2-hydroxy-N-[3-(piperidine-1sulfonyl)phenyl]benzamide] | 4.6 | 116
